{
  "source": "patent US20230310431A1",
  "about": "“COMPOSITION FOR PREVENTING OR TREATING LIVER FIBROSIS, CONTAINING TRIAZOLE DERIVATIVE AS ACTIVE INGREDIENT” (INDUSTRY-ACADEMIC COOPERATION FOUNDTION, YONSEI UNIVERSITY, priority 2020, published 2023)",
  "key": {"[1]": {"system": "fatty liver mouse model", "assay": "Immunohistochemical analysis of liver tissue (Sirius red, a-SMA), fatty liver mouse model", "type": "in vivo, C57BL/6 mice", "details": "50 mg/kg oral, FIG. 6", "description": "(§1) Twenty-four 6-week-old C57BL/6 mice were acclimated for 1 week and then divided into two groups. One group (12 mice) was fed a normal diet, and the other group (12 mice) was fed a high-fat diet for 9 weeks. After 9 weeks, each of the normal diet group and the high-fat diet group was subdivided into two groups, and each of vehicle and 50 mg/kg of ML323 was orally administered thereto twice a week for 7 weeks. Normal diet and high-fat diet were continued during oral administration.\nThe liver tissue harvested from each mouse was fixed in a 10% formalin solution, and a paraffin block and a slide were prepared using each liver tissue that had been fixed. The degree of fibrosis in liver tissue was measured using Sirius red solution staining and a-SMA immunostaining."}, "[2]": {"system": "CCL2", "assay": "Expression of inflammatory factors in liver tissue (real-time PCR): CCL2", "type": "in vivo, C57BL/6 mice", "details": "high-fat diet group, 50 mg/kg oral, versus control group, FIG. 5B", "description": "as §1\n(§2) The tissue harvested from each mouse was added to 1 ml of Easy blue (Intron) and then minced using a homogenizer. 200 μl of chloroform was added to and mixed well with the tissue, and the mixture was incubated for 3 minutes and then centrifuged at 13,200 rpm for 15 minutes at 4° C. After centrifugation, only the supernatant was transferred to a fresh tube, and the same amount of isopropyl alcohol was added thereto and mixed well therewith. After incubation for 10 minutes, centrifugation was performed at 13,200 rpm for 10 minutes at 4° C. After removing the supernatant, the RNA pellet was washed with 70% ethanol and centrifuged at 13,200 rpm for 5 minutes at 4° C. […]\n(§3) cDNA was synthesized from the extracted RNA using ReverTraAce RT master mix (TOYOBO), and then gene expression changes were measured using a real-time PCR system (ABI)."}, "[3]": {"system": "COL1A1", "assay": "Expression of hepatic fibrosis inducers in liver tissue (real-time PCR): COL1A1", "type": "in vivo, C57BL/6 mice", "details": "high-fat diet group, 50 mg/kg oral, FIG. 5A", "description": "as §1, §2, §3"}, "[4]": {"system": "CDAA diet mice", "assay": "Immunohistochemical analysis of liver tissue (H&E, F4/80, a-SMA), CDAA diet non-alcoholic fatty liver model", "type": "in vivo, C57BL/6 mice", "details": "CDAA diet group, 50 mg/kg oral, FIG. 7", "description": "In addition, ten 6-week-old C57BL/6 mice were acclimated for 1 week and then fed CDAA (choline-deficient L-amino-defined) for 8 weeks to induce non-alcoholic fatty liver. Thereafter, the 10 mice were divided into two groups, to which a vehicle and 50 mg/kg of ML-323 were orally administered, respectively, and then liver tissues were stained with H&E, F4/80, and a-SMA."}, "[5]": {"system": "fatty liver mouse model", "assay": "Measurement of liver function indicators (AST, ALT) in blood", "type": "in vivo, C57BL/6 mice", "details": "high-fat diet group, 50 mg/kg oral twice a week for 7 weeks, versus vehicle-administered control group, FIG. 4", "description": "as §1\nAfter the experimental period was over, blood was collected from each mouse, and after 30 minutes, the supernatant (plasma) was separated from the blood by centrifugation at 2,000 rpm for 15 minutes. The separated plasma was analyzed by Seoul Clinical Laboratories (SCL) to measure the levels of AST and ALT, which are indicators of liver function."}, "[6]": {"system": "COL1A1", "assay": "Measurement of cell fibrosis: COL1A1 mRNA in TGF-β-activated LX-2 cells", "type": "cell-based, Human", "details": "TGF-β 2.5 ng/ml, ML323 1, 10, 25 μM, 24 hours, versus cells not treated with ML323, FIG. 2", "description": "Human hepatic stellate LX-2 cells were seeded in a 6-well plate with DMEM (Welgene) containing 2% fetal bovine serum (Gibco) and 1% penicillin-streptomycin (Gibco), and cultured in an incubator for 24 hours at 37° C. under 5% CO2. Thereafter, the medium was replaced with serum-free DMEM, and the cells were starved for 24 hours. Next, the cells were activated by treatment with TGF-β at a concentration of 2.5 ng/ml, and at the same time, the cells were treated with ML323 at concentrations of 0, 1, 10 and 25 μM. After 24 hours, the cells were harvested and used for gene expression analysis.\nas §3"}, "[7]": {"system": "TGF-β", "assay": "Expression of inflammatory factors in liver tissue (real-time PCR): TGF-β", "type": "in vivo, C57BL/6 mice", "details": "high-fat diet group, 50 mg/kg oral, versus control group, FIG. 5B", "description": "as §1, §2, §3"}, "[8]": {"system": "fatty liver mouse model", "assay": "Measurement of liver weight change in fatty liver mouse model", "type": "in vivo, C57BL/6 mice", "details": "50 mg/kg oral twice a week for 7 weeks, FIG. 3", "description": "as §1\nAfter the experimental period was over, mice were sacrificed, and liver tissues were harvested and weighed."}, "[9]": {"system": "F4/80", "assay": "Expression of inflammatory factors in liver tissue (real-time PCR): F4/80", "type": "in vivo, C57BL/6 mice", "details": "high-fat diet group, 50 mg/kg oral, versus control group, FIG. 5B", "description": "as §1, §2, §3"}, "[10]": {"system": "Human hepatic stellate LX-2 cells", "assay": "Cytotoxicity measurement (WST assay)", "type": "cell-based", "details": "48 hours", "description": "Human hepatic stellate LX-2 cells were seeded in a 96-well plate with DMEM (Welgene) containing 2% fetal bovine serum (Gibco) and 1% penicillin-streptomycin (Gibco), and cultured in an incubator for 24 hours at 37° C. under 5% CO2. Next, the cells were treated with ML323 at concentrations of 0, 1, 5, 10 and 25 μM. After 48 hours, 10 μl of EZ-Cytox was added to the cell culture medium and reacted for 30 minutes, and the absorbance at 450 nm was measured using a microplate reader.\nCytotoxicity measurement (WST assay)"}},
  "data": [
    {"smiles": "Cc1cnc(-c2ccccc2C(C)C)nc1NCc1ccc(-n2ccnn2)cc1", "note": "[ML323, N-(4-(1H-1,2,3-triazol-1-yl)benzyl)-2-(24 sopropylphenyl)-5-methylpyrimidin-4-amine]", "values": [
      {"measurement": "hepatic fibrosis in liver tissue (Sirius red staining and a-SMA immunostaining)", "setting": "[1]", "result": "significantly decreased"},
      {"measurement": "mRNA expression level of CCL2 in liver tissue", "setting": "[2]", "result": "significantly decreased"},
      {"measurement": "mRNA expression level of the COL1A1 gene in liver tissue", "setting": "[3]", "result": "greatly decreased"},
      {"measurement": "inflammation and hepatic fibrosis in liver tissue (H&E staining, f4/80 and a-SMA immunostaining)", "setting": "[4]", "result": "significantly decreased"},
      {"measurement": "decrease of ALT level in the blood", "setting": "[5]", "result": 70, "unit": "%"},
      {"measurement": "decrease of AST level in the blood", "setting": "[5]", "result": 40, "unit": "%"},
      {"measurement": "mRNA expression of COL1A1", "setting": "[6]", "result": "significantly lower"},
      {"measurement": "mRNA expression level of TGF-β in liver tissue", "setting": "[7]", "result": "significantly decreased"},
      {"measurement": "liver weight", "setting": "[8]; high-fat diet group", "result": "decreased"},
      {"measurement": "accumulation of fat in liver tissue", "setting": "[8]; high-fat diet group, versus control group", "result": "significantly decreased"},
      {"measurement": "liver weight or size", "setting": "[8]; normal diet group, versus control group", "result": "no significant difference in liver weight or size"},
      {"measurement": "mRNA expression level of F4/80 in liver tissue", "setting": "[9]", "result": "significantly decreased"},
      {"measurement": "viability of LX-2 cells versus untreated cells", "setting": "[10]; 0, 1, 5, 10 and 25 μM, FIG. 1", "result": "no significant difference in viability"},
      {"measurement": "cytotoxicity", "setting": "[10]; all treatment concentrations (up to 25 μM)", "result": "did not exhibit cytotoxicity"}
    ]}
  ]
}
